Results published in PMC8252068, “Biochemical Investigation of the Interaction of pICln, RioK1 and COPR5 with the PRMT5–MEP50 Complex” (Chembiochem, 2021).
Read-outs that look alike come from different tables or passages of the source. Where a SMILES comes first, the peptide text is derived from it. The star is where a group is joined. FITC = O=C1OC2(c3ccc(O)cc3Oc3cc(O)ccc32)c2ccc(NC(=S)*)cc21; AEEA = NCCOCCOCC(=O)O

Key:
[1] = molecular target: T1, TIM–MEP50 complex (PRMT5 residues 1–292 co-expressed with MEP50) (Homo sapiens, UniProt O14744+Q9BQA1); assay: Fluorescence polarisation direct binding assay, TIM–MEP50; settings: 20-21 °C, n=3
T1 construct: truncated PRMT5 protein (residues 1–292), corresponding to the TIM barrel domain, was either expressed alone or co‐expressed as a complex with MEP50; His-TRX with 3C cleavage site (N, cleaved yes); made in house; host or cells: HighFive insect cells (flashBAC baculovirus system)
Description: (§1) All proteins were expressed at the Protein Chemistry Facility (PCF) based in the MPI Dortmund.
(§2) For expression of the proteins, all constructs were subcloned into pOPIN vectors.
(§3) Full-length human pICln, N-terminally tagged with 6His-TRX followed by the 3C cleavage site, and TIM barrel domain (1-292 aa) of human PRMT5, N-terminally tagged with 6His-SUMO, were expressed in BL21 CodonPlus (DE3) RIPL strain of Escherichia coli. Bacteria with the respective plasmids were cultured in Terrific Broth medium. Expression of TIM barrel was auto-induced, with incubation of the starter-culture (starting OD of ~0.05) at 35 °C for 2.5h, followed by an overnight incubation (20 -24h) at 25 °C. Expression of pICln was induced at OD ~0.6-0.8 using 0.3 mM IPTG and E. coli was incubated at 20 °C for 20h. Bacteria were harvested by centrifugation and lysed.
(§4) Expression of full-length human RioK1 tagged with 6NHis-3C and co-expression of full-length human PRMT5 (N-terminal 6His-MBP with 3C) with MEP50 (N-terminal 6His-TRX with 3C), and of TIM barrel (1-292 aa) with MEP50 (both N-terminally tagged with His-TRX with 3C cleavage site) was done using the Flash Bac Expression System (Oxford Expression Technologies, UK) with HighFive insect cells in Gibco Sf-900 III SFM medium. The cells were harvested by centrifugation and lysed.
(§5) All proteins were purified at the PCF (MPI Dortmund).
(§6) Protein purification was performed on HisTrap FF crude 5 ml Ni-based column, followed by the on-column treatment with 6His-tagged HRV-3C PreScission protease, or in case of the SUMO-tagged TIM barrel, with 6His-tagged SUMO protease. The cleaved proteins were then further purified using gel filtration chromatography with the HiLoad 26/60 Superdex 75 or 200 prep grade column. PRMT5 -MEP50, TIM-MEP50 and TIM barrel were stored in a buffer containing 50 mM HEPES, 250 mM NaCl, 1 mM TCEP with the pH adjusted to 8.0, whereas, pICln was stored in a buffer of 20 mM phosphate, 100 mM NaCl, 5 mM TCEP and pH of 7.5, whereas RioK1 was stored in a buffer of 50 mM Tris, 200 mM NaCl, 10% glycerol, 1 […]
(§7) Protein Labelling with Alexa 488
(§8) To a protein solution (ca. 1 mg/ml) in 0.2 M bicarbonate buffer with 1 mM TCEP at pH 8.3, was added 10 mM Alexa 488 NHS-ester in DMSO (8 equiv), and the mixture was kept on ice, in darkness, overnight. The protein was washed eight times with buffer (50 mM HEPES, 250 mM NaCl, 1 mM TCEP, 8.0 pH) using an Amicon® Ultra-0.5 mL spin filter. Protein concentration was then determined using the NanoDrop […]
(§9) Fluorescence Polarisation (FP)
(§10) The assay was performed in a buffer of 50 mM HEPES, 250 mM NaCl, 1 mM TCEP, 0.01% (v/v) Tween 20, pH 8.0, in black, 384 well-plates, with a total volume of 10 μl per well. The analysed, FITC labelled peptides, or Alexa488-labelled pICln or RioK1, were tested at a final concentration of 1 nM, and the appropriate unlabelled protein was titrated as two-fold dilution series. The plates were incubated at 20-21 °C for 30 min in case of FITC -labelled peptides or 1-2h in case of the Alexa488-labelled protein, and analysed on a plate reader using 485 nm excitation and 535 nm emission wavelength. The assay was performed in […]

[2] = molecular target: T2, native PRMT5–MEP50 complex (Homo sapiens, UniProt O14744+Q9BQA1); assay: Fluorescence polarisation direct binding assay, full-length PRMT5–MEP50; settings: 20-21 °C, n=3
T2 construct: Full‐length PRMT5–MEP50; 6His-MBP with 3C site (N, cleaved yes); made in house; host or cells: HighFive insect cells (flashBAC baculovirus system)
Text: as §1
For expression of the proteins, all constructs were subcloned into pOPIN vectors. […]
as §4, §5, §6, §7, §8, §9, §10

[3] = molecular target: T3, TIM barrel domain of PRMT5 (residues 1–292) (Homo sapiens, UniProt O14744); assay: Fluorescence polarisation direct binding assay, isolated TIM barrel
T3 construct: barrel domain (1-292 aa) of human PRMT5, N-terminally tagged with 6His-SUMO; 6His-SUMO (N, cleaved yes); made in house; host or cells: Escherichia coli BL21 CodonPlus (DE3) RIPL
Description: as §1, §2
as §3, with “lysed. […]” for “lysed.”
To a protein solution (ca. 1 mg/ml) in 0.2 M bicarbonate buffer with 1 mM TCEP at pH 8.3, was added 10 mM Alexa 488 NHS-ester in DMSO (8 equiv), and the mixture was kept on ice, in darkness, overnight. […] Protein concentration was then determined using the NanoDrop […]
as §9
as §10, with “wavelength.” for “wavelength. The assay was performed in”

[4] = molecular target: T4, TIM–MEP50 (Homo sapiens, UniProt O14744+Q9BQA1); assay: Flow induced dispersion analysis (FIDA), TIM–MEP50; type: binding; settings: technical triplicate
T4 construct: truncated PRMT5 protein (residues 1–292), corresponding to the TIM barrel domain, was either expressed alone or co‐expressed as a complex with MEP50; His-TRX with 3C cleavage site (N, cleaved yes); made in house; host or cells: HighFive insect cells (flashBAC baculovirus system)
Description: (§11) Nucleodur C18 Gravity column, with a flow rate of 0.56 ml/min, and the samples obtained from the stability assay were tested using 125 mm x 3 mm, 5 μm Macherey-Nagel Nucleodur C4 Gravity at a flow rate of 1 ml/min, in both cases using elution system: 5% → 65% MeCN (0.1% TFA) in H2O (0.1% TFA) over 14 min. HRMS analyses were performed on a LTQ Orbitrap mass spectrometer (Thermo Fisher Scientific, USA) using electrospray ionization. Concentrations of PRMT5 -MEP50, TIM -MEP50 and TIM were measured with the Bradford assay, using Protein Assay Dye Reagent from Bio -Rad (Cat. #500-0006; Bio- […]

[5] = molecular target: T5, PRMT5–MEP50 (Homo sapiens, UniProt O14744+Q9BQA1); assay: Flow induced dispersion analysis (FIDA), PRMT5–MEP50; type: binding; settings: technical triplicate
T5 construct: Full‐length PRMT5–MEP50; 6His-MBP with 3C site (N, cleaved yes); made in house; host or cells: HighFive insect cells (flashBAC baculovirus system)
Description: as §11

[6] = FP direct binding, FITC peptide 1 nM, protein titrated, HEPES buffer pH 8.0, 30 min, n.b. = no binding, read-out: K D value, TIM–MEP50
[7] = FP using the native PRMT5–MEP50 complex, FITC peptide 1 nM, pH 8.0, 30 min, n.b. = no binding, read-out: K D (Table 2, peptides 1–16)

T3 sequence (O14744 1-292): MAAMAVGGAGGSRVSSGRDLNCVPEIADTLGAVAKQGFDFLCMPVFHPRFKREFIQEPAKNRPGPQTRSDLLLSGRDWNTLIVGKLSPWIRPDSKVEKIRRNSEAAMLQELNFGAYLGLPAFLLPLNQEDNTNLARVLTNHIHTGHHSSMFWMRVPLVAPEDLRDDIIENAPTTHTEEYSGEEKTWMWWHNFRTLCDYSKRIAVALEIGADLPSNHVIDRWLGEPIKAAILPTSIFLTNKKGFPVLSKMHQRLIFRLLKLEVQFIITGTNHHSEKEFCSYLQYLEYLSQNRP
T1 sequence (O14744 1-292): as above
T1 sequence (Q9BQA1 whole entry partner, the tested form may be a part): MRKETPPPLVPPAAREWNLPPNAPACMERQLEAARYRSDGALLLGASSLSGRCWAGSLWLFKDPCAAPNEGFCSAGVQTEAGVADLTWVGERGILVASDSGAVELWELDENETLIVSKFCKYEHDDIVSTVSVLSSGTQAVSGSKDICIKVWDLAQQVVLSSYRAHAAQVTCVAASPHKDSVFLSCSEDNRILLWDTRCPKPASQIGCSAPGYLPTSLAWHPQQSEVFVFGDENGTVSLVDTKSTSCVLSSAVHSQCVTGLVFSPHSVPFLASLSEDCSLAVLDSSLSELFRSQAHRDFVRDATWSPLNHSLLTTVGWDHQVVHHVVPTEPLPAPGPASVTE
T2 sequence (O14744 whole entry): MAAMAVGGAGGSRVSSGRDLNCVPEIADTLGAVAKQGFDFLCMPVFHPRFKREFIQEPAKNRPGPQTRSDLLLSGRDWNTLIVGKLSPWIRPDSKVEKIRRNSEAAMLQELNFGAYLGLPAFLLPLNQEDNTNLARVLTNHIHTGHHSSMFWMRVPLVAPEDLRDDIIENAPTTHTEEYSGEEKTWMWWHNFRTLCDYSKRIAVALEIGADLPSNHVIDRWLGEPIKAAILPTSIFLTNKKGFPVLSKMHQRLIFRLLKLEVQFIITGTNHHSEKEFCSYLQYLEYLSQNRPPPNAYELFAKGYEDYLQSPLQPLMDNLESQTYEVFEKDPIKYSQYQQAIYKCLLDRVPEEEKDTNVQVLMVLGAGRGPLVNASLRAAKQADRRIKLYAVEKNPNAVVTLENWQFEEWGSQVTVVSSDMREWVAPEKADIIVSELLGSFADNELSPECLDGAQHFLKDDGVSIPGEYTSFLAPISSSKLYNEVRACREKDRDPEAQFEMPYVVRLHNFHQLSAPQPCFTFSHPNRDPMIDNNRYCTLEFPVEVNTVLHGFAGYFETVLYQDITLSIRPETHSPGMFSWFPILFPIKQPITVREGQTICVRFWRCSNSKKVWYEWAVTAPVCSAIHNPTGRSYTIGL
T2 sequence (Q9BQA1 whole entry partner): as the sequence (Q9BQA1 whole entry partner, the tested form may be a part) above
T4 sequence (O14744 1-292): as the sequence (O14744 1-292) above
T4 sequence (Q9BQA1 whole entry partner, the tested form may be a part): as the sequence (Q9BQA1 whole entry partner, the tested form may be a part) above
T5 sequence (O14744 whole entry): as the sequence (O14744 whole entry) above
T5 sequence (Q9BQA1 whole entry partner): as the sequence (Q9BQA1 whole entry partner, the tested form may be a part) above

Row | Kd [1, 6] | Kd [2, 7] | Kd [3] | Molecule | further results
1 | 2100 ± 150 nM | 1140 ± 38 nM | 5800 ± 110 nM | CC(C)[C@H](NC(=O)[C@@H](NC(=O)[C@@H]1CCCN1C(=O)[C@@H](NC(=O)COCCOCCNC(=S)Nc1ccc2c(c1)C(=O)OC21c2ccc(O)cc2Oc2cc(O)ccc21)[C@@H](C)O)[C@@H](C)O)C(=O)N[C@@H](C)C(=O)NCC(=O)N[C@@H](CCC(N)=O)C(=O)N[C@@H](Cc1ccccc1)C(=O)N[C@@H](CCC(=O)O)C(=O)N[C@@H](CC(=O)O)C(=O)N[C@@H](C)C(=O)N[C@@H](CC(=O)O)C(N)=O [compound 2] ({FITC-AEEA}-TPTVAGQFEDAD-NH2) | –
2 | – | – | – | Fitc‐O2Oc‐PTVAGQF‐NH2 [compound 4, DAB1 derived, fluorescently labelled linear peptide] | K D value, TIM–MEP50 ([1]; FP direct binding, FITC peptide 1 nM, protein titrated, HEPES buffer pH 8.0, 30 min, n.b. = no binding): did not have affinity and n.b.; K D value, Full‐length PRMT5–MEP50 ([2]; FP direct binding, FITC peptide 1 nM, protein titrated two-fold, 50 mM HEPES, 250 mM NaCl, 1 mM TCEP, 0.01% Tween 20, pH 8.0, 30 min, n.b. = no binding): did not have affinity and n.b.; K D (Table 2, peptides 1–16) ([2]; FP using the native PRMT5–MEP50 complex, FITC peptide 1 nM, pH 8.0, 30 min, n.b. = no binding): n.b.
3 | – | – | – | pICln-Alexa488: full-length human pICln labelled with the fluorescent dye Alexa488 | Kd ([1]; FP, Alexa488-labelled protein 1 nM, unlabelled complex titrated, pH 8.0, 1-2h, read-out: K D of Alexa488-labelled adaptor protein for TIM–MEP50 (FP)): 4.1 ± 0.6 nM; Kd ([2]; FP, Alexa488-labelled protein 1 nM, unlabelled complex titrated, pH 8.0, 1-2h, read-out: K D of Alexa488-labelled adaptor protein for PRMT5–MEP50 (FP)): 9.1 ± 1.5 nM; Kd ([4]; Supplement Table S4, indicator 10 nM, 25 °C, read-out: Affinity constant, TIM-MEP50 (Table S4, FIDA)): 64.1 nM; Kd ([4]; indicator (Alexa488-labelled protein) 10 nM, HEPES buffer pH 8.0, 0.01% Tween 20, 25 °C, read-out: K D for TIM–MEP50 (FIDA)): 64.1 nM; Kd ([5]; Supplement Table S4, indicator 10 nM, 25 °C, read-out: Affinity constant, PRMT5-MEP50 (Table S4, FIDA)): 39.3 nM; Kd ([5]; indicator (Alexa488-labelled protein) 10 nM, HEPES buffer pH 8.0, 0.01% Tween 20, 25 °C, read-out: K D for PRMT5–MEP50 (FIDA)): 39.3 nM
4 | 460 nM | 549 ± 119 nM | 2400 ± 320 nM | CSCC[C@H](NC(=O)COCCOCCNC(=S)Nc1ccc2c(c1)C(=O)OC21c2ccc(O)cc2Oc2cc(O)ccc21)C(=O)N[C@H](C(=O)N[C@@H](Cc1ccccc1)C(=O)N[C@@H](CCC(=O)O)C(=O)N[C@H](C(=O)NCC(=O)N[C@@H](CCC(N)=O)C(=O)N[C@@H](Cc1ccccc1)C(=O)N[C@@H](CC(=O)O)C(=O)N[C@@H](CC(=O)O)C(=O)N[C@@H](C)C(=O)N[C@@H](CCC(=O)O)C(=O)N[C@@H](CC(=O)O)C(N)=O)[C@@H](C)O)C(C)C [compound 3] ({FITC-AEEA}-MVFETGQFDDAED-NH2) | –
5 | 840 ± 150 nM | 522 ± 45 nM | 2800 ± 70 nM | CC(C)[C@H](NC(=O)[C@H](CCCNC(=N)N)NC(=O)[C@H](CO)NC(=O)COCCOCCNC(=S)Nc1ccc2c(c1)C(=O)OC21c2ccc(O)cc2Oc2cc(O)ccc21)C(=O)N[C@H](C(=O)N1CCC[C@H]1C(=O)NCC(=O)N[C@@H](CCC(N)=O)C(=O)N[C@@H](Cc1ccccc1)C(=O)N[C@@H](CC(=O)O)C(=O)N[C@@H](CC(=O)O)C(=O)N[C@@H](C)C(=O)N[C@@H](CC(=O)O)C(N)=O)C(C)C [compound 1] ({FITC-AEEA}-SRVVPGQFDDAD-NH2) | –
